Measured values taken from the supplement of paper PMC10627819.

Assays:
B. subtilis 168 [1] = assay: fitness (endpoint OD595 vs no drug) (fraction); higher = more growth
In short: (§1)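 Plates with 384 wells were inoculated at OD595 0.01 using 30 µl of TSB, LB Lennox or CY, or 55 µl for S. pneumoniae. Incubation was at 37 °C, with OD595 measured every 30 min for 14 h. Fitness is the stationary-phase transition optical density over the robust mean of no-drug control wells, after first-reading background subtraction; it is capped at 1.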

S. aureus DSM 20231 [2] = assay: as above
In short: as §1

S. aureus Newman [3] = assay: as above
In short: as §1

S. pneumoniae D39V [4] = assay: as above
In short: as §1

B. subtilis 168 [5] = assay: Bliss interaction score (quartile over a dose matrix) (fitness difference); higher = more antagonism (negative = synergy)
In short: (§2)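 Quartiles of the Bliss score were taken over technical, biological and donor/recipient replicates. That score is observed fitness minus the product of the single-drug fitness values, which were inferred from combination data. Fitness itself is OD595 at entry into stationary phase divided by the plate's robust no-drug mean, with a cap at 1.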

S. aureus DSM 20231 [6] = assay: as above
In short: as §2

S. aureus Newman [7] = assay: as above
In short: as §2

S. pneumoniae D39V [8] = assay: as above
In short: as §2
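Wherever Bliss interaction score (quartile over a dose matrix) is given: first quartile when negative (synergy) and third quartile when positive (antagonism).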

CO/N=C(\C(=O)N[C@@H]1C(=O)N2C(C(=O)O)=C(COC(C)=O)CS[C@H]12)c1csc(N)n1 [Cefotaxime] + COc1c(N2C[C@@H]3CCCN[C@@H]3C2)c(F)cc2c(=O)c(C(=O)O)cn(C3CC3)c12 [Moxifloxacin]
one replicate
Conditions	fitness
B. subtilis 168 [1], first compound 0.00775 µg/mL, partner 0.0312 µg/mL	0.0585
B. subtilis 168 [1], first compound 0.00775 µg/mL, partner 0.0625 µg/mL	0.0377
B. subtilis 168 [1], first compound 0.00775 µg/mL, partner 0.125 µg/mL	0.0204
B. subtilis 168 [1], first compound 0.0155 µg/mL, partner 0.0312 µg/mL	0.0281
B. subtilis 168 [1], first compound 0.0155 µg/mL, partner 0.0625 µg/mL	0.0221
B. subtilis 168 [1], first compound 0.0155 µg/mL, partner 0.125 µg/mL	0.0115
B. subtilis 168 [1], first compound 0.031 µg/mL, partner 0.0312 µg/mL	0.041
B. subtilis 168 [1], first compound 0.031 µg/mL, partner 0.0625 µg/mL	0.028
B. subtilis 168 [1], first compound 0.031 µg/mL, partner 0.125 µg/mL	0.0186
S. aureus DSM 20231 [2], first compound 0.039 µg/mL, partner 0.06 µg/mL	0.611
S. aureus DSM 20231 [2], first compound 0.039 µg/mL, partner 0.12 µg/mL	0.449
S. aureus DSM 20231 [2], first compound 0.078 µg/mL, partner 0.06 µg/mL	0.588
S. aureus DSM 20231 [2], first compound 0.078 µg/mL, partner 0.12 µg/mL	0.478
S. aureus DSM 20231 [2], first compound 0.156 µg/mL, partner 0.06 µg/mL	0.568
S. aureus DSM 20231 [2], first compound 0.156 µg/mL, partner 0.12 µg/mL	0.445
S. aureus DSM 20231 [2], first compound 0.312 µg/mL, partner 0.06 µg/mL	0.518
S. aureus DSM 20231 [2], first compound 0.312 µg/mL, partner 0.12 µg/mL	0.408
S. aureus Newman [3], first compound 0.039 µg/mL, partner 0.0075 µg/mL	0.669
S. aureus Newman [3], first compound 0.039 µg/mL, partner 0.015 µg/mL	0.529
S. aureus Newman [3], first compound 0.039 µg/mL, partner 0.03 µg/mL	0.0684

Conditions	fitness
B. subtilis 168 [1], first compound 0.0625 µg/mL, partner 0.0312 µg/mL	0.0617
B. subtilis 168 [1], first compound 0.0625 µg/mL, partner 0.0625 µg/mL	0.0437
B. subtilis 168 [1], first compound 0.0625 µg/mL, partner 0.125 µg/mL	0.0547
B. subtilis 168 [1], first compound 0.125 µg/mL, partner 0.0312 µg/mL	0.062
B. subtilis 168 [1], first compound 0.125 µg/mL, partner 0.0625 µg/mL	0.044
B. subtilis 168 [1], first compound 0.125 µg/mL, partner 0.125 µg/mL	0.05
B. subtilis 168 [1], first compound 0.25 µg/mL, partner 0.0312 µg/mL	0.0545
B. subtilis 168 [1], first compound 0.25 µg/mL, partner 0.0625 µg/mL	0.0527
B. subtilis 168 [1], first compound 0.25 µg/mL, partner 0.125 µg/mL	0.0632
B. subtilis 168 [1], first compound 0.5 µg/mL, partner 2 µg/mL	0.0626
B. subtilis 168 [1], first compound 0.5 µg/mL, partner 4 µg/mL	0.0595
B. subtilis 168 [1], first compound 0.5 µg/mL, partner 8 µg/mL	0.043
B. subtilis 168 [1], first compound 1 µg/mL, partner 2 µg/mL	0.0496
B. subtilis 168 [1], first compound 1 µg/mL, partner 4 µg/mL	0.0443
B. subtilis 168 [1], first compound 1 µg/mL, partner 8 µg/mL	0.0259
B. subtilis 168 [1], first compound 2 µg/mL, partner 2 µg/mL	0.0811
B. subtilis 168 [1], first compound 2 µg/mL, partner 4 µg/mL	0.0907
B. subtilis 168 [1], first compound 2 µg/mL, partner 8 µg/mL	0.0539
S. aureus DSM 20231 [2], first compound 0.039 µg/mL, partner 0.0075 µg/mL	0.674
S. aureus DSM 20231 [2], first compound 0.039 µg/mL, partner 0.015 µg/mL	0.612
S. aureus DSM 20231 [2], first compound 0.039 µg/mL, partner 0.03 µg/mL	0.543
S. aureus DSM 20231 [2], first compound 0.078 µg/mL, partner 0.0075 µg/mL	0.668
S. aureus DSM 20231 [2], first compound 0.078 µg/mL, partner 0.015 µg/mL	0.634
S. aureus DSM 20231 [2], first compound 0.078 µg/mL, partner 0.03 µg/mL	0.554
S. aureus DSM 20231 [2], first compound 0.156 µg/mL, partner 0.0075 µg/mL	0.636
S. aureus DSM 20231 [2], first compound 0.156 µg/mL, partner 0.015 µg/mL	0.603
S. aureus DSM 20231 [2], first compound 0.156 µg/mL, partner 0.03 µg/mL	0.536
S. aureus DSM 20231 [2], first compound 0.312 µg/mL, partner 0.0075 µg/mL	0.574
S. aureus DSM 20231 [2], first compound 0.312 µg/mL, partner 0.015 µg/mL	0.549
S. aureus DSM 20231 [2], first compound 0.312 µg/mL, partner 0.03 µg/mL	0.491
S. aureus Newman [3], first compound 0.078 µg/mL, partner 0.0075 µg/mL	0.657
S. aureus Newman [3], first compound 0.078 µg/mL, partner 0.015 µg/mL	0.498
S. aureus Newman [3], first compound 0.078 µg/mL, partner 0.03 µg/mL	0.0551
S. aureus Newman [3], first compound 0.156 µg/mL, partner 0.0075 µg/mL	0.558
S. aureus Newman [3], first compound 0.156 µg/mL, partner 0.015 µg/mL	0.432
S. aureus Newman [3], first compound 0.156 µg/mL, partner 0.03 µg/mL	0.046
S. aureus Newman [3], first compound 0.312 µg/mL, partner 0.0075 µg/mL	0.354
S. aureus Newman [3], first compound 0.312 µg/mL, partner 0.015 µg/mL	0.165
S. aureus Newman [3], first compound 0.312 µg/mL, partner 0.03 µg/mL	0.0657
S. aureus Newman [3], first compound 0.625 µg/mL, partner 0.0075 µg/mL	0.0357
S. aureus Newman [3], first compound 0.625 µg/mL, partner 0.015 µg/mL	0.019
S. aureus Newman [3], first compound 0.625 µg/mL, partner 0.03 µg/mL	0.0143
S. aureus Newman [3], first compound 1.25 µg/mL, partner 0.0075 µg/mL	0.0365
S. aureus Newman [3], first compound 1.25 µg/mL, partner 0.015 µg/mL	0.0045
S. aureus Newman [3], first compound 1.25 µg/mL, partner 0.03 µg/mL	0.0158
S. aureus Newman [3], first compound 2.5 µg/mL, partner 0.0075 µg/mL	0.0488
S. aureus Newman [3], first compound 2.5 µg/mL, partner 0.015 µg/mL	0.0142
S. aureus Newman [3], first compound 2.5 µg/mL, partner 0.03 µg/mL	0.0162
S. pneumoniae D39V [4], first compound 0.0018 µg/mL, partner 0.005 µg/mL	0.979
S. pneumoniae D39V [4], first compound 0.0018 µg/mL, partner 0.01 µg/mL	0.976
S. pneumoniae D39V [4], first compound 0.0018 µg/mL, partner 0.02 µg/mL	0.987
S. pneumoniae D39V [4], first compound 0.0018 µg/mL, partner 0.0312 µg/mL	0.13
S. pneumoniae D39V [4], first compound 0.0018 µg/mL, partner 0.0625 µg/mL	0.0856
S. pneumoniae D39V [4], first compound 0.0018 µg/mL, partner 0.125 µg/mL	0.0466
S. pneumoniae D39V [4], first compound 0.0035 µg/mL, partner 0.005 µg/mL	0.973
S. pneumoniae D39V [4], first compound 0.0035 µg/mL, partner 0.01 µg/mL	0.976
S. pneumoniae D39V [4], first compound 0.0035 µg/mL, partner 0.02 µg/mL	0.964
S. pneumoniae D39V [4], first compound 0.0035 µg/mL, partner 0.0312 µg/mL	0.108
S. pneumoniae D39V [4], first compound 0.0035 µg/mL, partner 0.0625 µg/mL	0.0929
S. pneumoniae D39V [4], first compound 0.0035 µg/mL, partner 0.125 µg/mL	0.0516
S. pneumoniae D39V [4], first compound 0.007 µg/mL, partner 0.005 µg/mL	0.801
S. pneumoniae D39V [4], first compound 0.007 µg/mL, partner 0.01 µg/mL	0.827
S. pneumoniae D39V [4], first compound 0.007 µg/mL, partner 0.02 µg/mL	0.833
S. pneumoniae D39V [4], first compound 0.007 µg/mL, partner 0.0312 µg/mL	0.0633
S. pneumoniae D39V [4], first compound 0.007 µg/mL, partner 0.0625 µg/mL	0.0639
S. pneumoniae D39V [4], first compound 0.007 µg/mL, partner 0.125 µg/mL	0.046

Conditions	Bliss interaction score
B. subtilis 168 [5]	0.0581
S. aureus DSM 20231 [6]	-0.0497
S. aureus Newman [7]	0.0354
S. pneumoniae D39V [8]	-0.0434

CO/N=C(\C(=O)N[C@@H]1C(=O)N2C(C(=O)O)=C(COC(C)=O)CS[C@H]12)c1csc(N)n1 [Cefotaxime] + Cc1ncc([N+](=O)[O-])n1CCO [Metronidazole]
fitness, one replicate
Conditions	partner 0.625 µg/mL	partner 0.781 µg/mL	partner 1.25 µg/mL	partner 1.562 µg/mL	partner 2.5 µg/mL	partner 3.124 µg/mL
B. subtilis 168 [1], first compound 0.00775 µg/mL	0.871	–	0.887	–	0.851	–
B. subtilis 168 [1], first compound 0.0155 µg/mL	0.728	–	0.672	–	0.707	–
B. subtilis 168 [1], first compound 0.031 µg/mL	0.553	–	0.576	–	0.594	–
S. aureus Newman [3], first compound 0.039 µg/mL	0.888	–	0.794	–	0.817	–
S. aureus Newman [3], first compound 0.078 µg/mL	–	0.714	–	0.756	–	0.788
S. aureus Newman [3], first compound 0.156 µg/mL	–	0.492	–	0.486	–	0.529
S. aureus Newman [3], first compound 0.312 µg/mL	0.248	0.305	0.311	0.397	0.329	0.361
S. aureus Newman [3], first compound 0.625 µg/mL	–	0.0599	–	0.0931	–	0.0887
S. aureus Newman [3], first compound 1.25 µg/mL	–	0.0419	–	0.0637	–	0.07
S. aureus Newman [3], first compound 2.5 µg/mL	–	0.0362	–	0.0976	–	0.0571

fitness
Conditions	partner 0.625 µg/mL	partner 1.073 µg/mL	partner 1.25 µg/mL	partner 2.145 µg/mL	partner 2.5 µg/mL	partner 4.29 µg/mL	partner 5 µg/mL
B. subtilis 168 [1], first compound 0.5 µg/mL	0.299	–	0.289	–	0.278	–	–
B. subtilis 168 [1], first compound 1 µg/mL	0.152	–	0.135	–	0.146	–	–
B. subtilis 168 [1], first compound 2 µg/mL	0.0908	–	0.109	–	0.108	–	–
S. aureus DSM 20231 [2], first compound 0.039 µg/mL	0.825	–	0.888	–	0.963	–	–
S. aureus DSM 20231 [2], first compound 0.078 µg/mL	0.829	–	0.828	–	0.913	–	–
S. aureus DSM 20231 [2], first compound 0.156 µg/mL	0.689	–	0.745	–	0.813	–	–
S. aureus DSM 20231 [2], first compound 0.312 µg/mL	0.621	–	0.649	–	0.674	–	–
S. aureus Newman [3], first compound 0.078 µg/mL	0.767	–	0.779	–	0.792	–	–
S. aureus Newman [3], first compound 0.156 µg/mL	0.663	–	0.705	–	0.674	–	–
S. pneumoniae D39V [4], first compound 0.0018 µg/mL	–	0.976	0.963	0.928	0.996	0.972	0.975
S. pneumoniae D39V [4], first compound 0.0035 µg/mL	–	0.987	0.979	0.92	0.975	0.939	0.973
S. pneumoniae D39V [4], first compound 0.007 µg/mL	–	0.95	0.961	0.89	0.99	0.933	0.953

Conditions	Bliss interaction score
B. subtilis 168 [5]	0.0904
S. aureus DSM 20231 [6]	-0.0403
S. aureus Newman [7]	0.0437
S. pneumoniae D39V [8]	0.0575
